# Measured values: patent publication US8546391B2, “Thiadiazole and oxadiazole derivatives, preparation thereof and therapeutic use thereof” (Sanofi, priority 2009, dated 2013)
# Tested on: triglyceride biosynthesis
# Assay: in vitro inhibitory activity on triglyceride biosynthesis, cell test ([14C] glycerol incorporation in Chang liver cells)
# Assay type: cell-based
# Conditions: compounds incubated 30 minutes, then [14C] glycerol incorporation for 6 hours, read-out: inhibitory activity on triglyceride biosynthesis, concentration that inhibits 50% of the activity
# Experimental: These trials consisted in measuring the in vitro inhibitory activity of the compounds of the invention on a cell test.
# Chang liver cells at 80% confluence are detached with trypsin-EDTA, 4 ml per 175 cm^2 flask. After centrifugation at 1300×g for 5 minutes, the cell pellet is washed once with PBS and then resuspended in whole medium. The number of cells and their viability are determined on Mallassez cells via the exclusion method with trypan blue.
# 150 000 cells are inoculated per well into a 24-well plate for a minimum of 3 hours in DMEM medium 4.5 g/l of glucose supplemented with 10% FCS and with antibiotics, and are maintained at 37° C. in an incubator with CO2 (5%).
# After 3 hours, the cells have adhered, the medium is removed and replaced overnight with DMEM medium 4.5 g/l of glucose with 2% of BSA/oleate.
# After culturing for 18 hours without serum, the test compounds are incubated for 30 minutes ([…], 30, 100, 300 and 1000 nM) with the cells, followed by addition of [^14C] glycerol (0.4 μCi/ml/well) for an incorporation time of 6 hours.
# The supernatant is drawn off and the cells are recovered by treatment with trypsin-EDTA, 100 μl/well, for 5 minutes at 37° C. This cell suspension is then recovered in an Eppendorf tube and is washed with twice 500 μl of PBS. The centrifugation at 1300×g for 5 minutes allows recovery of the cell pellets, which may be frozen at −20° C. In order to extract the lipids from the cell pellet, 400 μl of a methanol/dichloromethane/trifluoroacetic acid mixture (50/50/0.1%) is used to resuspend the cells. Next, the cell membranes are destroyed by sonication on a water bath, for 30 minutes. The samples are filtered through a 0.45 μm filtered and then injected onto a C18 HPLC column of 4.6×75 mm, 3 μm with a mobile phase of 5% (H2O+0.1% TFA), 70% methanol, 25% dichloromethane, with a flow rate of 1.5 ml/minute. The radioactivity is measured using a Flo One C625TR machine (Perkin-Elmer).
# The inhibitory activity on triglyceride biosynthesis is given by the concentration that inhibits 50% of the activity.
row,Compound,IC50 [µM]
1,"O=C(Nc1nnc(Cc2cccc(Cl)c2)s1)c1ccc(O[C@H]2CC[C@@H](C(=O)O)CC2)nc1 [Compound 63, cis-4-{5-[5-(3-chlorobenzyl)[1.3.4]thiadiazol-2-ylcarbamoyl]pyridin-2-yloxy}cyclohexanecarboxylic acid]",0.085

# Tested on: not given
# Assay: not given
# Conditions: not given
row,Compound,melting point [°C]
1,"O=C(O)CC1CCC(c2ccc(C(=O)Nc3nnc(COc4ccccc4)s3)cc2)CC1 (stereo not drawn) [Compound 22, {4-[4-(5-phenoxymethyl[1,3,4]thiadiazol-2-ylcarbamoyl)phenyl]cyclohexyl}acetic acid]",261
2,"O=C(O)C[C@H]1CC[C@H](c2ccc(C(=O)Nc3nnc(CSCc4ccccc4)s3)cc2)CC1 [Compound 96, trans-{4-[4-(5-benzylsulfanylmethyl[1,3,4]thiadiazol-2-ylcarbamoyl)phenyl]cyclohexyl}-acetic acid]",234
3,"O=C(O)C[C@H]1CC[C@H](c2ccc(C(=O)Nc3nnc(C[S+]([O-])Cc4ccccc4)s3)cc2)CC1 (stereo partly drawn) [Compound 95, trans-{4-[4-(5-phenylmethanesulfinylmethyl[1.3.4]thiadiazol-2-ylcarbamoyl)phenyl]cyclohexyl}acetic acid]",241
4,"O=C(O)C[C@H]1CC[C@H](c2ccc(C(=O)Nc3nnc(CC4CCC(O)CC4)s3)cc2)CC1 (stereo partly drawn) [Compound 79, trans-(4-{4-[5-(4-hydroxycyclohexylmethyl)[1,3,4]thiadiazol-2-ylcarbamoyl]phenyl}-cyclohexyl)acetic acid]",> 250
5,"O=C(O)C[C@H]1CC[C@H](c2ccc(C(=O)Nc3nnc(CCN4CCOCC4)s3)cc2)CC1 [Compound 48, trans-(4-{4-[5-(2-morpholin-4-ylethyl)[1,3,4]thiadiazol-2-ylcarbamoyl]phenyl}cyclohexyl)acetic acid]",213
6,"O=C(O)C[C@H]1CC[C@H](c2ccc(C(=O)Nc3nnc(C4CC(c5ccccc5)C4)s3)cc2)CC1 (stereo partly drawn) [Compound 97, trans-(4-{4-[5-(3-phenylcyclobutyl)[1,3,4]thiadiazol-2-ylcarbamoyl]phenyl}cyclohexyl)-acetic acid]",247
7,"O=C(CCc1nnc(NC(=O)c2ccc(O[C@H]3CC[C@@H](C(=O)O)CC3)cc2)s1)c1ccccc1 [Compound 102, cis-4-{4-[5-(3-oxo-3-phenylpropyl)[1,3,4]thiadiazol-2-ylcarbamoyl]phenoxy}cyclohexanecarboxylic acid]",220 to 260
8,"O=C(Nc1nnc(CCC2CCCC2)s1)c1ccc(O[C@H]2CC[C@@H](C(=O)O)CC2)cc1 [Compound 57, cis-4-{4-[5-(2-cyclopentylethyl)[1,3,4]thiadiazol-2-ylcarbamoyl]phenoxy}cyclohexanecarboxylic acid]",270
9,"O=C(O)C[C@H]1CC[C@H](c2ccc(C(=O)Nc3nnc(N4CCOCC4)s3)cc2)CC1 [Compound 49, trans-{4-[4-(5-morpholin-4-yl[1,3,4]thiadiazol-2-ylcarbamoyl)phenyl]cyclohexyl}acetic acid]",> 250
10,"O=C(O)C[C@H]1CC[C@H](c2ccc(C(=O)Nc3nnc(Cc4cc(F)cc(F)c4)s3)cc2)CC1 [Compound 78, trans-(4-{4-[5-(3,5-difluorobenzyl)[1,3,4]thiadiazol-2-ylcarbamoyl]phenyl}cyclohexyl)-acetic acid]",294
11,"CC(C)(C)c1nnc(NC(=O)c2ccc(C3CCC(CC(=O)O)CC3)cc2)s1 (stereo not drawn) [Compound 14, {4-[4-(5-tert-butyl[1,3,4]thiadiazol-2-ylcarbamoyl)phenyl]cyclohexyl}acetic acid]",298
12,"O=C(O)CC1CCC(c2ccc(C(=O)Nc3nnc(C4CCCC4)s3)cc2)CC1 (stereo not drawn) [Compound 16, {4-[4-(5-cyclopentyl[1,3,4]thiadiazol-2-ylcarbamoyl)phenyl]cyclohexyl}acetic acid]",274
13,"O=C(O)C[C@H]1CC[C@H](c2ccc(C(=O)Nc3nnc(NC(=O)Cc4ccccc4)s3)cc2)CC1 [Compound 76, {4-[4-(5-phenylacetylamino[1,3,4]thiadiazol-2-ylcarbamoyl)phenyl]cyclohexyl}acetic acid]",291
14,"O=C(Nc1nncs1)c1ccc(O[C@H]2CC[C@@H](C(=O)O)CC2)cc1 [Compound 61, cis-4-[4-([1,3,4]thiadiazol-2-ylcarbamoyl)phenoxy]cyclohexanecarboxylic acid]",277
15,"O=C(O)C[C@H]1CC[C@H](c2ccc(C(=O)Nc3nnc(CCC(O)c4ccccc4)s3)cc2)CC1 (stereo partly drawn) [Compound 84, (4-{4-[5-(3-hydroxy-3-phenylpropyl)[1.3.4]thiadiazol-2-ylcarbamoyl]-phenyl}cyclohexyl)acetic acid]",239 to 242
16,"O=C(O)C[C@H]1CC[C@H](c2ccc(C(=O)Nc3nnc(CCC(=O)c4ccccc4)s3)cc2)CC1 [Compound 83, trans-(4-{4-[5-(3-oxo-3-phenylpropyl)[1,3,4]thiadiazol-2-ylcarbamoyl]phenyl}cyclohexyl)acetic acid]",240 to 268
17,"O=C(O)C=C1CCC(c2ccc(C(=O)Nc3nnc(Cc4ccccc4)s3)cc2)CC1 (stereo not drawn) [Compound 42, {4-[4-(5-benzyl[1,3,4]thiadiazol-2-ylcarbamoyl)phenyl]cyclohexylidene}acetic acid]",255
18,"O=C(Nc1nnc(COCC2CCCO2)s1)c1ccc(O[C@H]2CC[C@H](C(=O)O)CC2)cc1 (stereo partly drawn) [Compound 82, trans-4-{4-[5-(tetrahydrofuran-2-ylmethoxymethyl)[1,3,4]thiadiazol-2-ylcarbamoyl]-phenoxy}cyclohexanecarboxylic acid]",217 to 223
19,"O=C(O)CC1CCC(c2ccc(C(=O)Nc3nnc(CC4CCCC4)s3)cc2)CC1 (stereo not drawn) [Compound 17, {4-[4-(5-cyclopentylmethyl[1,3,4]thiadiazol-2-ylcarbamoyl)phenyl]cyclohexyl}acetic acid]",268
20,"O=C(O)COC1CCC(c2ccc(C(=O)Nc3nnc(Cc4ccccc4)s3)cc2)CC1 (stereo not drawn) [Compound 46, trans-{4-[4-(5-benzyl[1.3.4]thiadiazol-2-ylcarbamoyl)phenyl]cyclohexyloxy}acetic acid]",250 to 255
21,"O=C(O)C[C@H]1CC[C@H](c2ccc(C(=O)Nc3nnc(NC4CCCC4)s3)cc2)CC1 [Compound 92, trans-{4-[4-(5-cyclopentylamino[1,3,4]thiadiazol-2-ylcarbamoyl)phenyl]cyclohexyl}-acetic acid]",335
22,"O=C(O)CC1CCC(c2ccc(C(=O)Nc3nnc(COc4ccc(F)cc4)s3)cc2)CC1 (stereo not drawn) [Compound 24, (4-{4-[5-(4-fluorophenoxymethyl)[1,3,4]thiadiazol-2-ylcarbamoyl]phenyl}cyclohexyl)-acetic acid]",275
23,"O=C(O)C[C@H]1CC[C@H](c2ccc(C(=O)Nc3nnc([C@H]4C[C@@H](c5ccccc5)C4)s3)cc2)CC1 [Compound 75, trans-(4-{4-[5-(3-phenylcyclobutyl)[1,3,4]thiadiazol-2-ylcarbamoyl]phenyl}cyclohexyl)acetic acid]",258
24,"O=C(O)CC1CCC(c2ccc(C(=O)Nc3nnc(CCCc4ccc(F)cc4)s3)cc2)CC1 (stereo not drawn) [Compound 23, [4-(4-{5-[3-(4-fluorophenyl)propyl][1,3,4]thiadiazol-2-ylcarbamoyl}phenyl)cyclohexyl]-acetic acid]",229
25,"O=C(Nc1nnc(-c2cccc(Cl)c2)s1)c1ccc([C@H]2CC[C@H]([C@H]3C[C@@H]3C(=O)O)CC2)cc1 [Compound 85, trans-(1S,2R)-2-(4-{4-[5-(3-chlorophenyl)[1,3,4]thiadiazol-2-ylcarbamoyl]phenyl}cyclohexyl)cyclopropanecarboxylic acid]",> 250
26,"CC(C)Cc1nnc(NC(=O)c2ccc(C3CCC(CC(=O)O)CC3)cc2)s1 (stereo not drawn) [Compound 19, {4-[4-(5-isobutyl[1,3,4]thiadiazol-2-ylcarbamoyl)phenyl]cyclohexyl}acetic acid]",263
27,"O=C(O)C[C@H]1CC[C@H](Oc2ccc(C(=O)Nc3nnc(Cc4ccccc4)s3)cc2)CC1 [Compound 81, trans-{4-[4-(5-benzyl[1,3,4]thiadiazol-2-ylcarbamoyl)phenoxy]cyclohexyl}acetic acid]",230 to 250
28,"O=C(C[C@H]1CC[C@H](c2ccc(C(=O)Nc3nnc(Cc4ccccc4)s3)cc2)CC1)NCC1COCCO1 (stereo partly drawn) [Compound 93, trans-N-(5-benzyl[1,3,4]thiadiazol-2-yl)-4-(4-{[([1,4]dioxan-2-ylmethyl)carbamoyl]-methyl}cyclohexyl)benzamide]",281
29,"O=C(Nc1nnc(Cc2ccccc2)s1)c1ccc(C2CCC3(CC2)CC3C(=O)O)cc1 (stereo not drawn) [Compound 43, 6-[4-(5-benzyl[1.3.4]thiadiazol-2-ylcarbamoyl)phenyl]spiro[2.5]-octane-1-carboxylic acid]",255
